Assay results from patent US20240350402A1, “TOPICAL DRUG TREATMENT TO PREVENT OR REDUCE CORNEAL SCARRING” (The Cleveland Clinic Foundation, priority 2021, published 2024).

Columns and labels:
Type in all cases: in vivo, rabbit
collagen type IV [1] = test: Alkali burn model: IHC collagen type IV intensity in anterior and posterior stroma (ImageJ); conditions: one month
Protocol: Worth, TX) and a 5 mm diameter circular Whatman No. 1 filter paper (Cat #1001-6508, Fisher Scientific) wetted with 100 μl of 1N NaOH solution. Following the alkali burn injury, the cornea was irrigated profusely with BSS. Each injured cornea also received one drop of ciprofloxacin (Alcon, Ft. Worth, TX, USA) ten minutes after surgery and four times a day for one week and at least 15 minutes apart from the study medications. […] Worth TX), at least 5 minutes apart, or 4) 50 μl of BSS. Multiplex immunohistochemistry (IHC) was performed using previously described methods^8 and primary antibodies (Table 7) confirmed by western blotting and IHC to recognize rabbit antigens or isotypic control antibodies (Thermo Fisher Scientific, Waltham, MA), and secondary fluorescent tagged antibodies (Table 7). The collagen type IV antibody (Cat. #AB769, Millipore, Temecula CA) was raised against purified human and bovine collagen type IV that had been affinity purified with human and bovine collagen type IV crosslinked to agarose and cross-absorbed by the manufacturer with human and bovine collagens type I, II, III, V and VI to eliminate cross-reactivity. This collagen type IV antibody was shown previously to bind rabbit collagen IV in IHC,^8,9 and recognizes the alpha-1/alpha-2 chains but not the alpha-3 to alpha-6 chains. The keratocan antibody is raised against peptide […]-OH (SEQ ID NO:1). This marker was used to identify keratocytes in situ. […] All corneas in each group had IHC for collagen type IV. Images from each cornea were converted to uniform 300 DPI, 875×568 pixel, files. […] The staining intensity within each box was determined with the analyze histogram function and the mean of three boxes was the intensity value in the anterior or posterior stroma for that cornea.

[2] = test system: myofibroblast marker α-SMA; test: -9D PRK model: IHC stromal α-SMA pixels (ImageJ); conditions: topical 0.8 mg/ml losartan six times a day, one month
Protocol: Animal procedures were approved by the Institutional Animal Care and Use Committee at the Cleveland Clinic Foundation and animals were treated in accordance with the tenets of the Association for Research in Vision and Ophthalmology Statement for the Use of Animals in Ophthalmic and Vision Research. Twelve female 12- to 15-week-old New Zealand white rabbits weighing 2.5 to 3 kg each were included. Starting 24 hours prior to surgery and continuing 5 days after PRK, all rabbits received 60 mL children's liquid acetaminophen (Johnson & Johnson, Ft. Washington, PA, USA) per 1 L of drinking water. One eye of each rabbit was randomly selected to have −9.0 D (on myopia scale) PRK and received 2 drops of topical 1% proparacaine hydrochloride (Alcon, Fort Worth, TX, USA) prior to the surgery. […]
All images were converted to 300 DPI 900 pixel width×672 pixel height images with Photoshop 22.1.1 (Adobe, San Jose, CA). The mean pixels of stromal α-SMA or stromal collagen type IV were determined in a 900-pixel wide×235-pixel high rectangle (for either α-SMA or collagen type IV quantitation) with ImageJ in three sections for each cornea using the image panels showing only the color of interest. […]

collagen type IV [3] = test: -9D PRK model: IHC stromal collagen type IV pixels (ImageJ); conditions: losartan-treated group, one month
Protocol: No corticosteroids were administered in either group.
Corneal Cryo-Fixation and Sectioning Rabbits were euthanized while under ketamine-xylazine general anesthesia with 100 mg/kg Beuthanasia (Shering-Plough, Kenilworth, NJ, USA) by intravenous injection followed by bilateral pneumothorax. The corneo-scleral rims were removed with sharp Westcott scissors (Fairfield, CT, USA) and 0.12 forceps (Storz, St Louis, MO, USA). […]

SMILES: CCCCc1nc(Cl)c(CO)n1Cc1ccc(-c2ccccc2-c2nn[nH]n2)cc1 [losartan]
- COL IV staining intensity in the posterior stroma vs vehicle treatment (collagen type IV [1]): significantly different
- mean intensity units of collagen type IV in the anterior stroma compared to vehicle treatment (collagen type IV [1]): significantly decreased
- total pixels of α-SMA staining within the analyzed rectangle (mean±SEM) [2]: 120±60 pixels
- collagen type IV localization (IHC) (collagen type IV [3]): localized primarily to the epithelial basement membrane
